# Active and inactive are the calls of the source. The rule behind the calls is not given here.
# Tested on: CCRIS mutagenicity, Ames/micronucleus/aberration tests
# Test: CCRIS mutagenicity studies
# Settings: Test System: AMES SALMONELLA TYPHIMURIUM
smiles,measurement,setting,value
O=NN1CCCCC1,mutagenic call,"Strain/Indicator: TA98, Metabolic Activation: HAMSTER, LIVER, S-9, AROCLOR 1254 (10%), Method: PREINCUBATION",active; positive
same,mutagenic call,"Strain/Indicator: TA98, Metabolic Activation: HAMSTER, LIVER, S-9, AROCLOR 1254 (10%), Method: STANDARD PLATE",active; positive
same,mutagenic call,"Strain/Indicator: TA98, Metabolic Activation: HAMSTER, LIVER, S-9, AROCLOR 1254, Method: PREINCUBATION",active; positive
same,mutagenic call,"Strain/Indicator: TA98, Metabolic Activation: HAMSTER, LIVER, S-9, AROCLOR 1254, Method: STANDARD PLATE",active; positive
same,mutagenic call,"Strain/Indicator: TA98, Metabolic Activation: NONE, Method: PREINCUBATION",inactive; negative
same,mutagenic call,"Strain/Indicator: TA98, Metabolic Activation: NONE, Method: STANDARD PLATE",inactive; negative
same,mutagenic call,"Strain/Indicator: TA98, Metabolic Activation: RAT, LIVER, S-9, AROCLOR 1254 (10%), Method: PREINCUBATION",inactive; negative
same,mutagenic call,"Strain/Indicator: TA98, Metabolic Activation: RAT, LIVER, S-9, AROCLOR 1254 (10%), Method: STANDARD PLATE",inactive; negative
same,mutagenic call,"Strain/Indicator: TA98, Metabolic Activation: RAT, LIVER, S-9, AROCLOR 1254, Method: PREINCUBATION",inactive; negative
same,mutagenic call,"Strain/Indicator: TA98, Metabolic Activation: RAT, LIVER, S-9, AROCLOR 1254, Method: STANDARD PLATE",inactive; negative
same,mutagenic call,"Strain/Indicator: TA100, Metabolic Activation: HAMSTER, LIVER, S-9, AROCLOR 1254 (10%), Method: PREINCUBATION",active; positive
same,mutagenic call,"Strain/Indicator: TA100, Metabolic Activation: HAMSTER, LIVER, S-9, AROCLOR 1254 (10%), Method: STANDARD PLATE",active; positive
same,mutagenic call,"Strain/Indicator: TA100, Metabolic Activation: HAMSTER, LIVER, S-9, AROCLOR 1254, Method: PREINCUBATION",active; positive
same,mutagenic call,"Strain/Indicator: TA100, Metabolic Activation: HAMSTER, LIVER, S-9, Method: PREINCUBATION",active; positive
same,mutagenic call,"Strain/Indicator: TA100, Metabolic Activation: HUMAN, LIVER, S-9, Method: PREINCUBATION",active; positive
same,mutagenic call,"Strain/Indicator: TA100, Metabolic Activation: MOUSE, LIVER, S-9, Method: PREINCUBATION",active; positive
same,mutagenic call,"Strain/Indicator: TA100, Metabolic Activation: NONE, Method: PREINCUBATION",inactive; negative
same,mutagenic call,"Strain/Indicator: TA100, Metabolic Activation: NONE, Method: STANDARD PLATE",inactive; negative
same,mutagenic call,"Strain/Indicator: TA100, Metabolic Activation: RABBIT, LIVER, S-9, Method: STANDARD PLATE",inactive; negative
same,mutagenic call,"Strain/Indicator: TA100, Metabolic Activation: RABBIT, LUNG, S-9, Method: STANDARD PLATE",active; positive
same,mutagenic call,"Strain/Indicator: TA100, Metabolic Activation: RABBIT, NASAL, S-9, Method: STANDARD PLATE",inactive; negative
same,mutagenic call,"Strain/Indicator: TA100, Metabolic Activation: RAT, LIVER, S-9, AROCLOR 1254 (10%), Method: PREINCUBATION",active; positive
same,mutagenic call,"Strain/Indicator: TA100, Metabolic Activation: RAT, LIVER, S-9, AROCLOR 1254 (10%), Method: STANDARD PLATE",inactive; negative
same,mutagenic call,"Strain/Indicator: TA100, Metabolic Activation: RAT, LIVER, S-9, AROCLOR 1254, Method: PREINCUBATION",active; positive
same,mutagenic call,"Strain/Indicator: TA100, Metabolic Activation: RAT, LIVER, S-9, AROCLOR 1254, Method: STANDARD PLATE",inactive; negative

# — PubChem BioAssay AID1259407 (Chemical Carcinogenesis Research Information System (CCRIS), 2018)
